Data published in patent publication US20220274967A1, “BCAT MODULATION” (Icagen, LLC, priority 2019, published 2022).

What was measured:
BCAT2 = biological target: T1, BCAT2 (Homo sapiens, UniProt O15382); test: BCAT2 enzyme inhibition (human); format: biochemical
T1 sequence (O15382 28-392): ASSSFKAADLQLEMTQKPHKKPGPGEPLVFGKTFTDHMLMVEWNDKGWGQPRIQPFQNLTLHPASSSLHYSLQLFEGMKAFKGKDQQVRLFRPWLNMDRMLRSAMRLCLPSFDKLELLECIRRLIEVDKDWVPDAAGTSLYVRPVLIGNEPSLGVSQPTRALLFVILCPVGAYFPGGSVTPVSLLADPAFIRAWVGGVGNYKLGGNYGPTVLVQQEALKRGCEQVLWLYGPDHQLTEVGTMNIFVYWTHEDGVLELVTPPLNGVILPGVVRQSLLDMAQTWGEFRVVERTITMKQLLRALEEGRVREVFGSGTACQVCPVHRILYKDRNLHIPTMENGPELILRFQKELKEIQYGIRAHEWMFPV
Procedure: In further embodiments, the functional modulation of BCAT2 is assayed using a cell-free assay. In various embodiments, the cell-free assay is an enzyme-coupled fluorescent assay. For example, the disclosure contemplates use of an assay that monitors the production of L-glutamate from branch-chain amino acids and α-ketoglutarate through the coupling of hBCATm activity to two additional enzymes, L-Glutamate Oxidase (L-GOx) and Horseradish Peroxidase (HRP). Specifically, L-GOx catabolizes L-glutamate to generate α-ketoglutarate and […], the latter being utilized by HRP and leading to the formation of fluorescent resorufin from the redox-sensitive dye Amplex Red. In some embodiments, the test compound is classified as a candidate compound if a decrease in L-glutamate is measured. In further embodiments, the test compound is classified as a candidate compound if a decrease in α-ketoglutarate is measured.

GM00371 cells = test: Viability assay (Cell titer glo) in the 3-HIB assay; format: cell-based, human; settings: Homo sapiens, 24 h, read-out: 3HIB INHIBITION IC50 (μM) MEAN GM00371 cells Viablility Assay
Procedure: Cell Plating: Cells (Coriell Institute GM00371 cells) were plated (96-well clear bottom sterile plate; Greiner 655098) at 10,000 cells/0.1 mL in Eagle's minimum essential medium (EMEM)/15% FBS (Gibco 16000-044) with a Combi dispenser in a cell culture hood and incubated at 37° C. and 5% CO2 overnight.
Compound Dilution: Compound were prepared as 33.3× intermediate dilution in DMSO in 96 well round polystyrene plates. For 30 μM final maximum start with 30 μL of 10 mM in DMSO. 10-12 1:3 serial dilutions were prepared from left to right (20 μL+40 μL DMSO). A 10× secondary dilution was prepare in EMEM by taking 7.5 μL 33.3× and transfer to replicate 96 well round polystyrene plates and then adding 242.5 μL EMEM A 1× final dilution in EMEM was prepared by taking 50 μL 10× dilution and transferring to replicate 96 well polypropylene assay block (Costar 3956) and adding 450 μL EMEM A control was prepared for maximal compound inhibition by taking 20 μL 10 mM Reference Compound A and adding 40 μL DMSO for a concentration of 3.3 mM To 7.5 μL of the 3.3 mM Reference Compound A solution and added 242.5 μL EMEM to make a 100 μM solution. The subsequent Reference Compound A solution was diluted with EMEM to achieve a final concentration of 10 μM. The structure of Reference Compound A is:
A control was prepared for maximal compound toxicity by taking 7.5 μL Reference Compound B and 242.5 μL EMEM to make […]. 50 μL of that 100 μM Reference Compound B solution was combined with 450 μL EMEM to achieve a concentration of 30 μM. The structure of Reference Compound B is
Compound Treatment: Media was aspirated from the cells and 100 μL of D-PBS (ThermoFisher 14190144) was added and then removed. 100 μL of diluted compound was added to the cells in the place and the cells were incubated at 37° C. and 5% CO2 for 24 hours.
Viability Assay: To the cells remaining in the plate 25 μL D-PBS and 25 μL Cell titer glo reagent (Promega G7572). The plate was placed on a shaker for 2 minutes, incubated at room temperature in the dark and then read on a Clariostar microplate reader.

| SMILES | IC50 (BCAT2) [µM] | IC50 (GM00371 cells) [µM] |
| --- | --- | --- |
| C=CC(=O)N[C@H]1CCC[C@@H](n2c(-c3ccccn3)nc3cc(C(=O)NC)ccc32)C1 [Compound 106] | > 1 | ≥ 1 |
| C=CC(=O)NCc1ccc(C(=O)N[C@H]2CCC[C@@H](n3c(-c4ccccn4)nc4cc(C(=O)NC)ccc43)C2)s1 [Compound 108] | > 1 | ≥ 1 |
| C=CC(=O)Nc1ccc(C(=O)N[C@H]2CCC[C@@H](n3c(-c4ccccn4)nc4cc(C(=O)NC)ccc43)C2)s1 [Compound 110] | > 1 | ≥ 1 |
| CNC(=O)c1ccc2c(c1)nc(-c1ccccn1)n2[C@@H]1CCC[C@H](NC(=O)c2ccc(-c3ccccc3)s2)C1 [Compound 111] | > 1 | ≥ 1 |
| CNC(=O)c1ccc2c(c1)nc(-c1ccccn1)n2[C@@H]1CCC[C@H](NC(=O)c2ccc(Br)cc2)C1 [Compound 114] | 0.1 to 0.5 | – |
| CNC(=O)c1ccc2c(c1)nc(-c1ccccn1)n2[C@@H]1CCC[C@H](NC(=O)c2ccccc2)C1 [Compound 115] | > 1 | ≥ 1 |
| COC(=O)c1ccc2c(c1)nc(-c1ccccn1)n2[C@@H]1CCC[C@H](NC(=O)c2cccs2)C1 [Compound 117] | > 1 | ≥ 1 |
| O=C(N[C@H]1CCC[C@@H](n2c(-c3ccccn3)nc3cc(CO)ccc32)C1)c1cccs1 [Compound 118] | > 1 | ≥ 1 |
| O=C(N[C@H]1CCC[C@@H](n2c(-c3ccccn3)nc3cc(CO)ccc32)C1)c1ccc(Br)s1 [Compound 119] | 0.1 to 0.5 | – |
| CNC(=O)c1ccc2c(c1)nc(-c1ccccn1)n2[C@@H]1CCC[C@H](NC(=O)c2coc(Br)n2)C1 [Compound 120] | > 1 | ≥ 1 |
| CNC(=O)c1ccc2c(c1)nc(-c1ccccn1)n2[C@@H]1CCC[C@H](NC(=O)c2ccc(C(C)=O)s2)C1 [Compound 121] | > 1 | ≥ 1 |
| CNC(=O)c1ccc2c(c1)nc(-c1ccccn1)n2[C@@H]1CCC[C@H](NC(=O)c2ccc(C(=O)OC)s2)C1 [Compound 122] | > 1 | ≥ 1 |
| CNC(=O)c1ccc2c(c1)nc(-c1ccccn1)n2[C@@H]1CCC[C@H](NC(=O)c2ccc(Br)o2)C1 [Compound 125] | > 1 | – |
| CNC(=O)c1ccc2c(c1)nc(-c1ccccc1NC(C)=O)n2[C@H]1CCC[C@@H](NC(=O)c2ccc(C#N)s2)C1 [Compound 130] | 0.5 to 1 | – |
| CNC(=O)c1ccc2c(c1)nc(-c1ccccn1)n2[C@H]1CC[C@@H](NC(=O)c2ccc(Br)s2)C1 [Compound 132] | 0.1 to 0.5 | ≥ 1 |
| CNC(=O)c1ccc2c(c1)nc(-c1ccccc1C(N)=O)n2[C@H]1CCC[C@@H](NC(=O)c2ccc(C#N)s2)C1 [Compound 142] | < 0.1 | ≥ 1 |
| CNC(=O)c1ccc2c(c1)nc(-c1ccccn1)n2C1CCCC(NC(=O)c2ccc(C3CC3)s2)C1 (stereo not drawn) [Compound 144] | 0.5 to 1 | ≥ 1 |
| CNC(=O)c1ccc2c(c1)nc(-c1ccccn1)n2[C@H]1CCC[C@@H](NC(=O)c2ccc(C(C)C)s2)C1 [Compound 146] | > 1 | ≥ 1 |
| CNC(=O)c1ccc2c(c1)nc(-c1cccc(C)n1)n2[C@H]1CCC[C@@H](NC(=O)c2ccc(Br)s2)C1 [Compound 148] | < 0.1 | – |
| CNC(=O)c1ccc2c(c1)nc(-c1ncccc1OC)n2[C@H]1CCC[C@@H](NC(=O)c2ccc(Br)s2)C1 [Compound 150] | > 1 | – |
| CNC(=O)c1ccc2c(c1)nc(-c1ccc(C)cn1)n2[C@H]1CCC[C@@H](NC(=O)c2ccc(Br)s2)C1 [Compound 153] | 0.5 to 1 | – |
| CNC(=O)c1ccc2c(c1)nc(-c1ccc(OC)c(OC)c1)n2[C@H]1CCC[C@@H](NC(=O)c2ccc(Br)s2)C1 [Compound 158] | > 1 | – |

Further lines, with some results ahead:

| IC50 (BCAT2) [µM] | SMILES | IC50 (GM00371 cells) [µM] |
| --- | --- | --- |
| 0.1 to 0.5 | CNC(=O)c1ccc2c(c1)nc(-c1ccccc1N1CCOCC1)n2[C@H]1CCC[C@@H](NC(=O)c2ccc(Br)s2)C1 [Compound 159] | – |
| > 1 | CNC(=O)c1ccc2c(c1)nc(-c1ccc3c(c1)OC(F)(F)O3)n2[C@H]1CCC[C@@H](NC(=O)c2ccc(Br)s2)C1 [Compound 160] | – |
| > 1 | CNC(=O)c1ccc2c(c1)nc(-c1ccc(C#N)cc1)n2[C@H]1CCC[C@@H](NC(=O)c2ccc(Br)s2)C1 [Compound 162] | – |
| 0.1 to 0.5 | CNC(=O)c1ccc2c(c1)nc(-c1ccc(Cl)cc1)n2[C@H]1CCC[C@@H](NC(=O)c2ccc(Br)s2)C1 [Compound 164] | – |
| > 1 | CNC(=O)c1ccc2c(c1)nc(-c1cccc(C#N)c1)n2[C@H]1CCC[C@@H](NC(=O)c2ccc(Br)s2)C1 [Compound 165] | – |
| > 1 | C#Cc1cccc(-c2nc3cc(C(=O)NC)ccc3n2[C@H]2CCC[C@@H](NC(=O)c3ccc(Br)s3)C2)c1 [Compound 167] | – |
| 0.5 to 1 | CNC(=O)c1ccc2c(c1)nc(-c1csc3c1CCCC3)n2[C@H]1CCC[C@@H](NC(=O)c2ccc(Br)s2)C1 [Compound 168] | – |
| 0.5 to 1 | CNC(=O)c1ccc2c(c1)nc(-c1ccc(C)cc1)n2[C@H]1CCC[C@@H](NC(=O)c2ccc(Br)s2)C1 [Compound 170] | – |
| 0.1 to 0.5 | CNC(=O)c1ccc2c(c1)nc(-c1ccc(C)s1)n2[C@H]1CCC[C@@H](NC(=O)c2ccc(Br)s2)C1 [Compound 171] | – |
| 0.1 to 0.5 | CNC(=O)c1ccc2c(c1)nc(-c1cc(Cl)ccc1O)n2[C@H]1CCC[C@@H](NC(=O)c2ccc(C#N)s2)C1 [Compound 179] | – |
| > 1 | CNC(=O)c1ccc2c(c1)nc(-c1cc(Cl)cc(C)c1O)n2[C@H]1CCC[C@@H](NC(=O)c2ccc(Br)s2)C1 [Compound 182] | – |
| 0.1 to 0.5 | CNC(=O)c1ccc2c(c1)nc(-c1ccc(O)cn1)n2[C@H]1CCC[C@@H](NC(=O)c2ccc(Br)s2)C1 [Compound 186] | – |
| > 1 | CNC(=O)c1ccc2c(c1)nc(-c1ccc(C#N)c(Cl)n1)n2[C@H]1CCC[C@@H](NC(=O)c2ccc(C#N)s2)C1 [Compound 187] | – |
| 0.1 to 0.5 | CNC(=O)c1ccc2c(c1)nc(-c1cc(Cl)ccc1O)n2[C@H]1CCC[C@@H](NC(=O)c2ccc(Cl)s2)C1 [Compound 190] | – |
| > 1 | CNC(=O)c1ccc2c(c1)nc(-c1ccc(O)cn1)n2[C@H]1CCC[C@@H](NC(=O)c2ccc(Cl)s2)C1 [Compound 191] | – |
| < 0.1 | CNC(=O)c1cc2nc(-c3cccc(F)c3O)n([C@H]3CCC[C@@H](NC(=O)c4ccc(Br)s4)C3)c2cc1F [Compound 209] | 0.1 to 0.5 |
| < 0.1 | CNC(=O)c1cc2nc(-c3sccc3C)n([C@H]3CCC[C@@H](NC(=O)c4ccc(Br)s4)C3)c2cc1F [Compound 210] | ≥ 1 |
| < 0.1 | CNC(=O)c1cc2nc(-c3ccccn3)n([C@H]3CCC[C@@H](NC(=O)c4ccc(Br)s4)C3)c2cc1OC [Compound 211] | 0.1 to 0.5 |
| < 0.1 | CNC(=O)c1cc2nc(-c3ccccc3F)n([C@H]3CCC[C@@H](NC(=O)c4ccc(Cl)s4)C3)c2cc1OC [Compound 212] | < 0.1 |
| > 1 | CNC(=O)c1ccc2c([C@H]3CCC[C@H](NC(=O)c4ccc(-c5ccccc5)s4)C3)c(-c3ccccc3)[nH]c2c1 [Compound 282] | – |
| > 1 | COC(=O)c1ccc2c(n1)nc(-c1ccccn1)n2[C@H]1CCC[C@@H](NC(=O)c2cccs2)C1 [Compound 300] | – |
| 0.1 to 0.5 | COC(=O)c1ccc2c(n1)nc(-c1ccccn1)n2[C@@H]1CCC[C@H](NC(=O)c2ccc(Br)s2)C1 [Compound 301] | – |
| > 1 | CNC(=O)c1ccc2c(n1)nc(-c1ccccn1)n2[C@@H]1CCC[C@H](NC(=O)c2ccc(Br)s2)C1 [Compound 305] | – |
